Measured values as given in patent publication EP0450660B1, “Anti-atherosclerotic diaryl compound” (THE WELLCOME FOUNDATION LIMITED, priority 1988, dated 1990).

Experiments:
isolated rat liver cells = assay: In vitro cytotoxicity: effects on metabolic competence of isolated rat liver cells; type: cell-based
Method: The cytotoxicity of the compound of the invention was investigated in vitro by studying its effects on the metabolic competence of isolated rat liver cells. […] A 15% decrease in ATP levels was observed after 90 minutes at a concentration of 100µM.

ACAT = target: T1, ACAT (Homo sapiens, UniProt P35610); assay: In vitro inhibition of ACAT (radiometric, [14C]oleoyl CoA substrate, microsomal protein); type: biochemical; details: enzyme derived from human embryo 407 intestinal epithelial cell line, 37°C, pH 7.0, 4 minutes, read-out: IC₅₀ for ACAT inhibition
T1 construct: Microsomal protein is therefore used as the source of both ACAT and cholesterol; endogenous in cells; host or cells: human embryo 407 intestinal epithelial cell line (microsomal fraction)
T1 sequence (P35610 1-550): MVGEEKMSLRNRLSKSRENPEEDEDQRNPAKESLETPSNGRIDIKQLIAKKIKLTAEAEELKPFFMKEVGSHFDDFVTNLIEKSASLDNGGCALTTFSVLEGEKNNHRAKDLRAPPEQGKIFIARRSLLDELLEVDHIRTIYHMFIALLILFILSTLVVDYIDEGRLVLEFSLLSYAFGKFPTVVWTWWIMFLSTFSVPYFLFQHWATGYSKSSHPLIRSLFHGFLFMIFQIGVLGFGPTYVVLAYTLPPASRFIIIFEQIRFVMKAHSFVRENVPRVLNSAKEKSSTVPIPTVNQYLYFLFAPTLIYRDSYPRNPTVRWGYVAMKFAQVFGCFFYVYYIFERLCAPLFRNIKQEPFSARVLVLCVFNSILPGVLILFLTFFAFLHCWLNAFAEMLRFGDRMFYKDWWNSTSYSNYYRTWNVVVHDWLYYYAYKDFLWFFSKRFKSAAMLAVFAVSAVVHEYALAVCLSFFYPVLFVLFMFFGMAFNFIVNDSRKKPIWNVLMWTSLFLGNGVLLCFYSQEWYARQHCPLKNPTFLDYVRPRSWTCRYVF
Method: In vitro inhibition of ACAT
The in vitro esterification of cholesterol in the presence of ACAT and the test compound was assayed radiometrically using [¹⁴C]oleoyl CoA as substrate: [¹⁴C]oleoyl CoA + cholesterol → [¹⁴C]oleoyl cholesterol + CoASH [formula]
The enzyme is membrane-associated in vivo. Microsomal protein is therefore used as the source of both ACAT and cholesterol. The compound of the invention was tested against enzyme derived from human embryo 407 intestinal epithelial cell line.
[¹⁴C]Oleoyl CoA was incubated with microsomal protein at 37°C, pH 7.0, in the presence of various concentrations of the test compound. After 4 minutes, the reaction was stopped by the addition of ice-cold chloroform/methanol containing a known amount of [³H]oleoyl cholesterol to compensate for the loss of any [¹⁴C] product. A known volume of the resulting lower phase, which contains lipidic material from the reaction, was dried, redissolved in hexane containing unlabelled oleoyl cholesterol (TLC marker) and run on a quantitative TLC plate (silica gel). The oleoyl cholesterol spot was visualised (iodine vapour), removed from the TLC plate and its radioactivity measured by scintillation counting.
A plot of ACAT inhibitory activity vs concentration was prepared for the test compound and the corresponding IC₅₀ determined.

## CCCCCCCNC(=O)Nc1c(F)cc(F)cc1CCc1ccc(CC(C)(C)C)cc1 [compound of the invention, 1-[2,4-difluoro-6-{2-[4-(2,2-dimethylpropyl)phenyl]ethyl}phenyl]-3-heptylurea]
Isolated rat liver cells; after 90 minutes at a concentration of 100µM
  decrease in ATP levels: 15%
Isolated rat liver cells; concentrations of up to 100µM
  effect on gluconeogenesis: No effect
ACAT
  IC50: 22 nM
